Experimental data published in PubChem BioAssay AID330 (DTP/NCI, 2004).
Values joined by “and” are separate entries in the source; they are usually repeats but may differ in a detail not shown here. Equal values may be shown once. Toxic doses and inconclusive results are not listed.

System: P388 leukemia ip, CD2F1 mice, survival T/C
Test: NCI In Vivo Anticancer Drug Screen. Data for tumor model P388 Leukemia (intraperitoneal) in CD2F1 (CDF1) mice
Settings: endpoint: median survival time, higher = longer survival
Procedure, shortened: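 Mice carrying the transplanted tumor received test compound or vehicle. Survival was recorded in each group, and the value is the treated-group measurement divided by that of the vehicle-treated control group.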

[1] = dose: 50.0 mg/kg/injection, schedule: Q01DX009 (ip), vehicle: Klucel (hydroxypropylcellulose) (HPC)
[2] = dose: 100.0 mg/kg/injection, schedule: Q01DX009 (ip), vehicle: Klucel (hydroxypropylcellulose) (HPC)
[3] = dose: 200.0 mg/kg/injection, schedule: Q01DX009 (ip), vehicle: Klucel (hydroxypropylcellulose) (HPC)
[4] = dose: 50.0 mg/kg/injection, schedule: Q01DX009 (ip), vehicle: saline
[5] = dose: 50.0 mg/kg/injection, schedule: Q01DX005 (ip), vehicle: saline with Tween-80
[6] = dose: 100.0 mg/kg/injection, schedule: Q01DX005 (ip), vehicle: saline with Tween-80
[7] = dose: 200.0 mg/kg/injection, schedule: Q01DX005 (ip), vehicle: saline with Tween-80
[8] = dose: 60.0 mg/kg/injection, schedule: Q01DX005 (ip), vehicle: saline with Tween-80
[9] = dose: 120.0 mg/kg/injection, schedule: Q01DX005 (ip), vehicle: saline with Tween-80
[10] = dose: 240.0 mg/kg/injection, schedule: Q01DX005 (ip), vehicle: saline with Tween-80
[11] = dose: 100.0 mg/kg/injection, schedule: Q01DX009 (ip), vehicle: saline with Tween-80
[12] = dose: 200.0 mg/kg/injection, schedule: Q01DX009 (ip), vehicle: saline with Tween-80

For `O=[N+]([O-])c1ccccc1N=NNc1ccccc1`, the T/C [1] was 95 % of control, the T/C [2] was 91 % of control and the T/C [3] was 104 % of control.

In the case of `O=C1C(O)=C(O)C(=O)C(O)=C1O`, the T/C [4] is reported as 108 % of control, the T/C (dose: 100.0 mg/kg/injection, schedule: Q01DX009 (ip), vehicle: saline) is reported as 111 % of control and the T/C (dose: 200.0 mg/kg/injection, schedule: Q01DX009 (ip), vehicle: saline) is reported as 117 % of control.

For `Nc1nc(Br)c2ncn(C3OC(CO)C(O)C3O)c2n1` (configuration not stated), the T/C [5] was 101 % of control, the T/C [6] was 101 % of control and the T/C [7] was 94 % of control.

With `O=C1CN2CCN3CC(=O)NC(=O)[C@H]3[C@@H]2C(=O)N1` the T/C [8] was 96 % of control, the T/C [9] was 96 % of control and the T/C [10] was 98 % of control.

For `O=C1c2ccccc2C(=O)c2c(NC(=O)c3ccc4c5c(ncnc35)-c3ccccc3C4=O)cccc21`, the T/C [1] was 95 % of control, the T/C [2] was 100 % of control and the T/C [3] was 94 % of control.

With `S=C(Nc1ccccc1)Nc1ccc(N(CCCl)CCCl)cc1` the T/C (dose: 100.0 mg/kg/injection, schedule: Q04DX003 (ip), vehicle: Klucel (hydroxypropylcellulose) (HPC)) was 106 % of control, the T/C (dose: 200.0 mg/kg/injection, schedule: Q04DX003 (ip), vehicle: Klucel (hydroxypropylcellulose) (HPC)) was 114 % of control and the T/C (dose: 400.0 mg/kg/injection, schedule: Q04DX003 (ip), vehicle: Klucel (hydroxypropylcellulose) (HPC)) was 111 % of control.

`CN(C)/C=C\c1c([N+](=O)[O-])ncn1C` was tested, and the T/C [5] was 99 % of control, the T/C [6] was 99 % of control and the T/C [7] was 97 % of control.

`CC(=O)Nc1c(Cl)c(Cl)c2c(c1Cl)Cc1cc(Cl)ccc1-2` was tested, and the T/C (dose: 12.5 mg/kg/injection, schedule: Q01DX009 (ip), vehicle: saline) was 103 % of control, the T/C (dose: 25.0 mg/kg/injection, schedule: Q01DX009 (ip), vehicle: saline) was 104 % of control and the T/C (dose: 25.0 mg/kg/injection, schedule: Q01DX009 (ip), vehicle: suspension in saline) was 91 % of control. The T/C [4] was 107 % of control, the T/C (dose: 50.0 mg/kg/injection, schedule: Q01DX009 (ip), vehicle: suspension in saline) was 87 % of control and the T/C (dose: 100.0 mg/kg/injection, schedule: Q01DX009 (ip), vehicle: suspension in saline) was 91 % of control.

In the case of `COC(=O)CCSCCO`, the T/C [8] is reported as 119 % of control, the T/C [9] is reported as 109 % of control and the T/C [10] is reported as 101 % of control.

`Cc1cccc(NC(=O)Oc2ccc(C#N)cc2)c1` was tested, and the T/C [8] was 97 % of control, the T/C [9] was 109 % of control and the T/C [10] was 106 % of control.

With `O=C(CNC(=O)c1ccccc1)N/N=C/c1ccco1` the T/C [8] was 95 % of control, the T/C [9] was 101 % of control and the T/C [10] was 100 % of control.

`CC(=O)OC(C(=O)N1CC1)C(OC(C)=O)C(OC(C)=O)C(OC(C)=O)C(=O)N1CC1` (configuration not stated) was tested, and the T/C (dose: 25.0 mg/kg/injection, schedule: Q01DX009 (ip), vehicle: Klucel (hydroxypropylcellulose) (HPC)) was 217 % of control, the T/C [1] was 237 % of control and 255 % of control and the T/C [2] was 88 % of control.

With `CCCCCCC(=O)/C=C/c1ccc(OC(=O)c2ccc(C)cc2)cc1` the T/C (dose: 50.0 mg/kg/injection, schedule: Q01DX009 (ip), vehicle: saline with Tween-80) was 95 % of control, the T/C [11] was 93 % of control and the T/C [12] was 93 % of control.

`CCOC(OCC)c1c(Cl)cccc1Cl` was tested, and the T/C [11] was 118 % of control, the T/C (dose: 100.0 mg/kg/injection, schedule: Q04DX003 (ip), vehicle: saline with Tween-80) was 100 % of control and the T/C [12] was 118 % of control. The T/C (dose: 200.0 mg/kg/injection, schedule: Q04DX003 (ip), vehicle: saline with Tween-80) was 100 % of control and the T/C (dose: 400.0 mg/kg/injection, schedule: Q04DX003 (ip), vehicle: saline with Tween-80) was 90 % of control.
